# From PMC8851282, “Senolysis induced by 25-hydroxycholesterol targets CRYAB in multiple cell types” (iScience, 2022)
# Assays:
# [1] = tested on: FAPs; assay: Cell viability assay (cell counting kit-8) of senescent and non-senescent FAPs treated with inhibitors; type: cell-based, mouse; conditions: for IC50: FAPs; for viability of senescent versus non-senescent FAPs: Doxo-induced senescence, viability on day 5, 25HC at concentrations between 0.1 and 1 μM
# Protocol: (§1) Figure 3 25HC is a senolytic in multiple muscle cell types (A) Targets, compounds, and mechanisms. (B) Timeline of cell viability assay with inhibitors. Cells were pre-cultured for 24 h, treated with Doxo for 24 h, and then treated with inhibitors. Cell viability was analyzed from day 0–7. (C–E) Effects of inhibitors on viability of FAPs, SCs, and HSMMs. Cells were treated with inhibitors at the indicated concentrations. Cell viability was analyzed on day 3 (HSMMs) or 5 (FAPs and SCs). Blue and red dots indicate non-senescent (NS) and senescent (SEN), respectively. The average value at 0 μM for each group was set at 100% cell viability. p values versus NS were obtained using unpaired two-tailed Student’s t test. ∗p < 0.05, ∗∗p < 0.01, and ∗∗∗p < 0.001.
# (§2) Figure 4 EC50 fitted curves (triplicates) of inhibitor effects at 3 and 7 days in FAPS and SCs EC50 was defined as the concentration of inhibitors that provokes a response halfway between baseline and maximum senolytic activity. EC50 values were determined by four- parameter logistic modeling using GraphPad Prism 8.0.
# (§3) Hind limb muscles were digested in DMEM containing 0.5% (w/v) collagenase type II (Worthington) for 90 min at 37 °C with trituration and passed through a 40-μm nylon mesh. Erythrocytes were eliminated by treating with BD Pharm Lyse (BD Biosciences). Cells were resuspended in a washing buffer of PBS with 2% FBS and stained with antibodies for 30 min at 4 °C as described ([Kamizaki et al., 2017]). FAPs and SCs were isolated from the suspension by FACS (Aria II, BD Biosciences) using anti-CD31, CD45, Sca-1, PDGFR and VCAM1 antibodies. FAPs were identified as Sca1/PDGFR-positive and CD31-, CD45- and VCAM1-negative cells ([Uezumi et al., 2010]). SCs were identified as VCAM1-positive and CD31-, CD45-, Sca-1 and PDGFR-negative cells ([Liu et al., 2015]).
# (§4) All experiments were performed in incubators at 37 °C, 3% O2 and 5% CO2. Senescence was induced by treatment with either Doxo (250 nM for 24 h) ([Demaria et al., 2017]) or X-irradiation (10 Gy) ([Limbad et al., 2020]). For cell culture studies using 25HC, it was used at the indicated concentrations in the media.
# (§5) FAPs and SCs were cultured on Matrigel-coated dishes (BD Biosciences) in growth medium (GM) consisting of DMEM plus 10% FBS, 1% penicillin-streptomycin and 10% MyoCult (STEMCELL Technologies) for 7 days. Human myogenic cell HSMMs (Lonza) were maintained according to the manufacturer’s instructions with SkGM-2 medium (Lonza).
# (§6) Cell viability was assessed using a cell counting kit-8 from Dojindo Molecular Technologies, Inc (Cat CK04-20). Cells were incubated with culture media + 10% kit cell viability reagent, 150 μL/well in 96-well plates for 2 h. The supernatant was transferred to a new 96-well plate and absorbance read at 450 nm as recommended in the product datasheet.
# [2] = tested on: SCs; assay: Cell viability assay (cell counting kit-8) of senescent and non-senescent SCs treated with inhibitors; type: cell-based, mouse; conditions: for viability of senescent versus non-senescent SCs: Doxo-induced senescence, viability on day 5
# Protocol: as §1, §2, §3, §4, §5, §6
# [3] = tested on: human skeletal muscle myoblasts (HSMMs); assay: Cell viability assay (cell counting kit-8) of senescent and non-senescent HSMMs treated with inhibitors; type: cell-based; conditions: for IC50: Homo sapiens, Myoblast, HSMM; for viability of senescent versus non-senescent HSMMs: Doxo-induced senescence, viability on day 3
# Protocol: as §1, §4, §5, §6
# [4] = tested on: senescent cells; assay: Senescent cell burden in mice treated with Doxo or Doxo + ABT; conditions: four-month-old male mice; Doxo 10 mg/kg; ABT 50 mg/kg/day after Doxo
# [5] = tested on: SCs; assay: Single-cell RNA sequencing of SCs from skeletal muscle of mice treated with PBS, Doxo or Doxo + ABT (differential gene expression); conditions: four-month-old male mice; Doxo 10 mg/kg i.p.; ABT 50 mg/kg/day by gavage, 2 cycles of 5 days
# [6] = tested on: FAPs; assay: Single-cell RNA sequencing of FAPs from skeletal muscle of mice treated with PBS, Doxo or Doxo + ABT (differential gene expression); conditions: for senescent FAPs in mouse skeletal muscle (scRNA seq): four-month-old male mice, Doxo 10 mg/kg i.p., ABT 50 mg/kg/day by gavage, 2 cycles of 5 days
# [7] = tested on: mouse dermal fibroblasts (mDFs); assay: Cell viability assay of NS and SEN mouse dermal fibroblasts treated with CRYAB and HMOX1 inhibitors; type: cell-based; conditions: 250 nM Doxo-induced senescence; after 72 h of treatment; 25HC at five or 10 μM
# Protocol: The average value of DMSO was set at 1. (B and D) Effects of CRYAB and HMOX1 inhibitors on DMSO-treated NS or Doxo-treated SEN cells; (B) mDFs, (D) IMR-90s. Cells were treated with the inhibitors at the indicated concentrations. Cell viability was measured after 72 h. (C) IMR-90 qRT-PCR. For qPCR: mean +/- SE, n =4, ∗p< 0.05, ∗∗p< 0.01, ∗∗∗p<0.001, ∗∗∗∗p<0.0001 by Dunnett’s multiple comparisons test vs DMSO. For cell viability assays: mean +/- SE, n =3, ∗∗p< 0.01, ∗∗∗p<0.001, ∗∗∗∗p<0.0001 vs 0 mM by student’s t test.
# For skin sample collection, mice were euthanized, hair removed from dorsal skin and the area cleaned with alcohol. A small 1 cm x 1 cm region of skin was removed, and subcutaneous fat removed by scalpel. Skin was digested in 2–3 ml of 0.25% trypsin at 37 °C for 1 h. Hair and epidermis were further removed, and the dermis was minced into 2–3 mm pieces. Digestion of the sample in 5 ml of 1 mg/ml collagenase (Sigma, Cat#C5138) in HBSS (with Ca^++ and Mg^++) (Gibco, cat#24020117) was carried out at 37 °C on a shaker for 1 h. Collagenase digestion was stopped by addition of 10 ml 10% FBS DMEM. Filtration of the homogenate through a 70-micron mesh was performed to remove undigested tissue. Differential centrifugation and washing were performed at 1200 rpm for 5 min, and the pellet was resuspended in 10% FBS DMEM then seeded in a six-well plate. Media were changed at 5 days after seeding and then every 3 days.
# as §4, §6
# [8] = tested on: Cdkn1a and Cryab mRNA in gastrocnemius and soleus muscles; assay: qRT-PCR of senescence markers and Cryab in muscles of Doxo-treated mice given 25HC; type: in vivo, mouse; conditions: mice, 4 mg/kg Doxo i.p., 5 injections, versus PBS
# Protocol: (§7) Figure 8 25HC induces senolysis in vivo in Doxo-treated mice (A) Timeline of 25HC treatment in Doxo-treated mice. Mice were given 4 mg/kg Doxo or PBS for 5 daily injections[A1], then injected with 25HC or vehicle for 7 consecutive days. (B) Mass of gastrocnemius muscles. Muscle weight was normalized to body weight. (C) Cdkn2a and Cryab mRNA levels in gastrocnemius (Gastroc) and soleus (Sol) muscles. RNA was collected 28–30 d after the first treatment with Doxo. mRNA levels were quantified by qRT-PCR, and normalized to actin mRNA levels. The average value of PBS-vehicle was set at 1. (D) 15-d-PGJ2 analysis in urine. Urine was collected at 24 h after the first treatment with 25HC or HbCD. p values versus PBS-Veh or Doxo-Veh are obtained using Tukey's multiple comparisons test. ∗p < 0.05, ∗∗p < 0.01, p < 0.001, and ∗∗∗∗p < 0.0001.
# Male C57BL/6J mice (3–4 months old) were purchased from the Jackson Laboratory. We performed five i.p. injections with 4 mg/kg of Doxo (Tocris Bioscience, Product# 2252) for each injection over 10 days (Figure 6A). Therefore, we injected a total of 20 mg/kg of Doxo/mouse over 10 days. We used EFT-PBS (EMD Millipore, Product# TMS-012-A) as a control. To test effects of 25HC (Tocris Bioscience, Product# 5741) on Doxo-treated mice, we prepared three experimental groups (n=15 for each group): 1) PBS+HβCD vehicle (22.5%), 2) Doxo (20 mg/kg)+vehicle (22.5%), 3) Doxo (20 mg/kg)+25HC (50 mg/kg) (Figure 6A); 25HC was dissolved in 22.5% 2-hydroxypropyl-beta-cyclodextrin (HβCD) (Tocris Bioscience, Product 0708). On the Day 5 after the last Doxo/PBS injections, the mice were treated with either 25HC (50 mg/kg) or vehicle by i.p. injections for 7 consecutive days (Figure 6A). 12 hr after the first 25HC or vehicle treatments, urine was collected (Figure 6A) from each group to test for the senolysis marker 15-d-PGJ2. […] Senescence markers p16^INK4a, p21^Cip1 and CRYAB expression was analyzed on gastrocnemius (Gastroc), soleus (So), tibialis anterior (TA), visceral fat (VF), kidney (Ki), liver (Li), lung (Lu), heart (He), and skin (Sk) samples by qRT-PCR. […]
# [9] = Body weight and gastrocnemius muscle weight in Doxo-treated mice; type: in vivo, mouse; conditions: 4 mg/kg Doxo i.p., 5 injections, versus PBS
# Protocol: as §7
# Male C57BL/6J mice (3–4 months old) were purchased from the Jackson Laboratory. We performed five i.p. injections with 4 mg/kg of Doxo (Tocris Bioscience, Product# 2252) for each injection over 10 days (Figure 6A). Therefore, we injected a total of 20 mg/kg of Doxo/mouse over 10 days. […] Senescence markers p16^INK4a, p21^Cip1 and CRYAB expression was analyzed on gastrocnemius (Gastroc), soleus (So), tibialis anterior (TA), visceral fat (VF), kidney (Ki), liver (Li), lung (Lu), heart (He), and skin (Sk) samples by qRT-PCR.
# [10] = tested on: FAPs; assay: Senescence induction by Doxo in cultured primary FAPs (qRT-PCR of marker genes, growth rate); type: cell-based, mouse; conditions: 250 or 100 nM Doxo
# [11] = tested on: SCs; assay: Senescence induction by Doxo in cultured primary SCs (qRT-PCR of marker genes, growth rate); type: cell-based, mouse; conditions: 250 or 100 nM Doxo
compound,measurement,setting,value
CC1(C)CCC(c2ccc(Cl)cc2)=C(CN2CCN(c3ccc(C(=O)NS(=O)(=O)c4ccc(N[C@H](CCN5CCOCC5)CSc5ccccc5)c(S(=O)(=O)C(F)(F)F)c4)cc3)CC2)C1 [ABT263],IC50,"[1]; Mus musculus, 72 h, 3 days in culture",14.7 µM
same,IC50,"[1]; Mus musculus, 168 h, 7 days in culture",7.5 µM
same,IC50,"[2]; Mus musculus, 168 h, SCs, 7 days in culture",14.1 µM
same,IC50,"[3]; 72 h, 3 days in culture",15.2 µM
same,IC50,"[3]; 168 h, 7 days in culture",9 µM
same,burden of senescent cells in mice,[4],reduced burden of senescent cells
same,senescent SCs in mouse skeletal muscle (scRNA seq),[5],reduces the fraction
same,senescent FAPs in mouse skeletal muscle (scRNA seq),[6],reduces the fraction
same,avg_logFC of gene Capza2,"[6]; sheet abt_down, gene Capza2, cluster c7, scRNA-seq differential expression",-0.2501
same,avg_logFC of gene Coq10b,"[6]; sheet abt_down, gene Coq10b, cluster c7, scRNA-seq differential expression",-0.25
same,avg_logFC of gene Hes1,"[6]; sheet abt_down, gene Hes1, cluster c1, scRNA-seq differential expression",-0.2504
same,avg_logFC of gene Pds5b,"[6]; sheet abt_down, gene Pds5b, cluster c9, scRNA-seq differential expression",-0.2501
same,avg_logFC of gene Qpct,"[6]; sheet abt_down, gene Qpct, cluster c3, scRNA-seq differential expression",-0.2504
same,avg_logFC of gene Creld2,"[6]; sheet abt_up, gene Creld2, cluster c4, scRNA-seq differential expression",0.8182
same,avg_logFC of gene Cxcl14,"[6]; sheet abt_up, gene Cxcl14, cluster c5, scRNA-seq differential expression",0.8906
same,avg_logFC of gene Myl9,"[6]; sheet abt_up, gene Myl9, cluster c9, scRNA-seq differential expression",0.9071
same,avg_logFC of gene Plac8,"[6]; sheet abt_up, gene Plac8, cluster c3, scRNA-seq differential expression",0.7972
same,avg_logFC of gene Tpm2,"[6]; sheet abt_up, gene Tpm2, cluster c9, scRNA-seq differential expression",1.1381
O=C(CC(c1ccccc1)c1ccccc1)Cn1ccnc1 [QC-308],viability of senescent versus non-senescent FAPs,[1],slightly but significantly decreased the viability of FAPs
same,viability of senescent versus non-senescent SCs,[2],no difference in killing
same,viability of senescent versus non-senescent HSMMs,[3],significantly decreased cell viability
same,senolysis in mDF cells,[7],ineffective
"COc1cccc2c1C(=O)c1c(O)c3c(c(O)c1C2=O)C[C@@](O)(C(=O)CO)C[C@@H]3O[C@H]1C[C@H](N)[C@H](O)[C@H](C)O1 [Doxo, Doxorubicin]",Cdkn1A mRNA in gastrocnemius and soleus muscles,[8],significantly increased
same,body weight,[9],significantly decreased
same,gastrocnemius muscle weight normalized to body weight,[9],no difference
same,senescence induction in cultured FAPs,[10],induced senescence
same,senescence induction in cultured SCs,[11],induced senescence
same,burden of senescent cells in mice,[4],induced senescence
same,senescent SCs in mouse skeletal muscle (scRNA seq),[5],induces senescence
same,senescent FAPs in mouse skeletal muscle (scRNA seq),[6],induces senescence
Brc1ccc(CCC2(Cn3ccnc3)OCCO2)cc1.Cl [OB24],viability of senescent versus non-senescent FAPs,[1],slightly but significantly decreased the viability of FAPs
same,IC50,[1]; 7 days in culture,261 µM
same,viability of senescent versus non-senescent SCs,[2],no difference in killing
same,viability of senescent versus non-senescent HSMMs,[3],significantly decreased cell viability
same,senolysis in mDF cells,[7],ineffective
